Reference: patent US20040209914A1, “Aromatic sulfone hydroxamic acids and their use as protease inhibitors” (priority 2000, published 2004)

Key:
Experiment in all cases: biochemical
Recombinant human MMP-2 = biological target: T1, Recombinant human MMP-2 (Homo sapiens, UniProt P08253); conditions: fluorogenic MCA-peptide substrate, pH 7.5, room temperature; read-out: MMP-2 IC50
T1 construct: made in house
T1 sequence (P08253 110-660): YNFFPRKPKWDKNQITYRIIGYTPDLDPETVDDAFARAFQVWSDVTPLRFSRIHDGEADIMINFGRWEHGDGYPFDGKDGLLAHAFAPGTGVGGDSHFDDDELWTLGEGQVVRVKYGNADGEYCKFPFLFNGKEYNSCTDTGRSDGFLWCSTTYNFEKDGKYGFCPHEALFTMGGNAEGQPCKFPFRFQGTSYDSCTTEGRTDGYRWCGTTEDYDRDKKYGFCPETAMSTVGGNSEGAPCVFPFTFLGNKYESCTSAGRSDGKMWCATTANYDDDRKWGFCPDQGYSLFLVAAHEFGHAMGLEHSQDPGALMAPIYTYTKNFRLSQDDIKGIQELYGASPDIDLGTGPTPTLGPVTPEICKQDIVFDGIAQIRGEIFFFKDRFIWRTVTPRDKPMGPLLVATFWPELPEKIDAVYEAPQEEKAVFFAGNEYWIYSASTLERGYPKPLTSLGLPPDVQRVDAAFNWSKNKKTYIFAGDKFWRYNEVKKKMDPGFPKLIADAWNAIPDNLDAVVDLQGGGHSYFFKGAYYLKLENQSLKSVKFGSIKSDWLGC
Description: (§1) Recombinant human MMP-1, MMP-2, MMP-9, MMP-13, and were used in this assay. These enzymes were prepared in the Assignee's es following usual laboratory procedures. Specifics for preparing and e enzymes can be found in the scientific literature describing these See, e.g., Enzyme Nomenclature (Academic Press, San Diego, Calif., d the citations therein).
The MMP-2 was obtained from MMP-2 expressing transfected cells provided by Dr. Gregory Goldberg of Washington University.
(§2) The enzyme substrate was a methoxycoumarin-containing polypeptide having the following sequence:
(§3) MCA-ProLeuGlyLeuDpaAlaArgNH2
(§4) Here, “MCA” is methoxycoumarin and “Dpa” is 3-(2,4-dinitrophenyl)-L-2,3-diaminopropionyl alanine.
(§5) These solutions were then compared to a control (which contained equal amount of DMSO/buffer solution, but no hydroxamate compound) using Microfluor™ White Plates (Dynatech, Chantilly, Va.). Specifically, The MMPs were activated with APMA or trypsin. […] The control likewise was incubated at room temperature in separate plates with the MMP and 4 uM of the MMP substrate. […] Inhibition was measured as a reduction in fluorescent intensity as a function of inhibitor concentration using a Perkin Elmer (Norwalk, Conn.) L550 plate reader. The IC50's were then calculated from these measurements.

Recombinant human MMP-13 = biological target: T2, Recombinant human MMP-13 (Homo sapiens, UniProt P45452); conditions: fluorogenic MCA-peptide substrate, pH 7.5, room temperature; read-out: MMP-13 IC50
T2 construct: made in house; host or cells: baculovirus / insect cells
Description: as §1
The expressed proenzyme was first purified over a heparin agarose column, and then over a chelating zinc chloride column. The proenzyme was then activated by APMA for use in the assay.
as §2, §3, §4, §5

Recombinant human MMP-1 = biological target: T3, Recombinant human MMP-1 (Homo sapiens, UniProt P03956); conditions: fluorogenic MCA-peptide substrate, pH 7.5, room temperature
T3 construct: made in house; host or cells: transfected HT-1080 cells
T3 sequence (P03956 100-469): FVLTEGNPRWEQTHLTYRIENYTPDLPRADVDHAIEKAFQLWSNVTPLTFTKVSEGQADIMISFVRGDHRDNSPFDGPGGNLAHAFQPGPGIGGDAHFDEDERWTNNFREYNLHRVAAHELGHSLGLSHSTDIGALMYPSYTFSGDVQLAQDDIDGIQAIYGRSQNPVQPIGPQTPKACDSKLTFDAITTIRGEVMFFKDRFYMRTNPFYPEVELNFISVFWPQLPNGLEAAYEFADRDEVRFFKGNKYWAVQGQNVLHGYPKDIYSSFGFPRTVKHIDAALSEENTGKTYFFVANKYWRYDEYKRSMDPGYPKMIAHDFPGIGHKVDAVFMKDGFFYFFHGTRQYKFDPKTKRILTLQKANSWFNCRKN
Description: as §1
The MMP-1 was obtained from MMP-1 expressing transfected HT-1080 cells provided by Dr. Harold Welgus of Washington University in St. Louis, Mo. The MMP-1 was activated using 4-aminophenylmercuric acetate (APMA), and then purified over a hydroxamic acid column.
as §2, §3, §4, §5

| SMILES | IC50 (Recombinant human MMP-2) | IC50 (Recombinant human MMP-13) | IC50 (Recombinant human MMP-1) |
| --- | --- | --- | --- |
| COc1ccc(C(=O)C2CCN(c3ccc(S(=O)(=O)C4(C(=O)NO)CCOCC4)cc3)CC2)cc1C [Example 305] | 3300 nM | 6 nM | > 10000 nM |
| COCCN1CCC(C(=O)NO)(S(=O)(=O)c2ccc(N3CCC(C(=O)c4ccc(COCC(C)C)s4)CC3)cc2)CC1 [Example 243] | 56 nM | 0.3 nM | > 10000 nM |
| COCCN1CCC(C(=O)NO)(S(=O)(=O)c2ccc(N3CCC(C(=O)c4ccc(CC5CCCCC5)cc4)CC3)cc2)CC1 [Example 203] | 816 nM | 0.6 nM | 2370 nM |
| CC(C)Oc1ccc(C(=O)C2CCN(c3ccc(S(=O)(=O)C4(C(=O)NO)CCN(C5CC5)CC4)cc3)CC2)cc1 [Example 215] | 22.7 nM | 0.9 nM | > 10000 nM |
| CCN1CCC(C(=O)NO)(S(=O)(=O)c2ccc(N3CCC(C(=O)c4ccc(CCC(C)O)cc4)CC3)cc2)CC1 (stereo not shown) [Example 248] | 141 nM | 0.6 nM | > 10000 nM |
| O=C(c1ccc(Cl)cc1)C1CCN(c2ccc(S(=O)(=O)C3(C(=O)NO)CCN(C4CC4)CC3)cc2)CC1 [Example 213] | 25.8 nM | 0.5 nM | > 10000 nM |
| O=C(c1ccco1)N1CCN(C(=O)C2CCN(c3ccc(S(=O)(=O)C4(C(=O)NO)CCOCC4)cc3)CC2)CC1 [Example 13] | 3500 nM | 31.6 nM | > 10000 nM |
| CCN1CCC(C(=O)NO)(S(=O)(=O)c2ccc(N3CCC(C(=O)c4ccc(CC5CCC5)cc4)CC3)cc2)CC1 [Example 195] | 463 nM | 0.3 nM | > 10000 nM |
| C#CCN1CCC(C(=O)NO)(S(=O)(=O)c2ccc(N3CCC(C(=O)c4ccc(C)cc4)CC3)cc2)CC1 [Example 152] | 56.3 nM | 0.6 nM | > 10000 nM |
| COCCN1CCC(C(=O)NO)(S(=O)(=O)c2ccc(N3CCC(c4ccc(C)cc4)CC3)cc2)CC1 [Example 269] |  | 1.4 nM | > 10000 nM |
| O=C(C1CCN(c2ccc(S(=O)(=O)C3(C(=O)NO)CCOCC3)cc2)CC1)N1CCN(c2ccc(C(F)(F)F)cc2)CC1 [Example 33] |  |  | 67.4 nM |
| O=C(Cc1ccccc1)C1CCN(c2ccc(S(=O)(=O)C3(C(=O)NO)CCOCC3)cc2)CC1 [Example 386] | 1900 nM | 15.2 nM |  |
| CCCc1ccc(C(=O)C2CCN(c3ccc(S(=O)(=O)C4(C(=O)NO)CCN(S(C)(=O)=O)CC4)cc3)CC2)cc1 [Example 165] | 1750 nM | 85.9 nM |  |
| O=C(NO)C1(S(=O)(=O)c2ccc(N3CCC(SCc4ccccc4Cl)CC3)cc2)CCN(C2CC2)CC1 [Example 147] | 145 nM | 20 nM |  |
| COCCN1CCC(C(=O)NO)(S(=O)(=O)c2ccc(N3CCC(C(=O)c4ccc(CCC(C)O)cc4)CC3)cc2)CC1 (stereo not shown) [Example 245] | 38.6 nM | 1.1 nM |  |
| C=CCN1CCC(C(=O)NO)(S(=O)(=O)c2ccc(N3CCC(C(=O)c4ccc(CCC)cc4)CC3)cc2)CC1 [Example 159] | 32.2 nM | 0.5 nM |  |
| CS(=O)(=O)N1CCC(C(=O)NO)(S(=O)(=O)c2ccc(N3CCC(C(=O)c4ccc5ccccc5c4)CC3)cc2)CC1 [Example 166] | > 10000 nM | 438 nM |  |
| C=CCN1CCC(C(=O)NO)(S(=O)(=O)c2ccc(N3CCC(C(=O)c4ccc(NC)cc4)CC3)cc2)CC1 [Example 161] | 235 nM | 0.3 nM |  |
| COCCN1CCC(C(=O)NO)(S(=O)(=O)c2ccc(N3CCC(C(=O)c4ccc(COCC5CC5)cc4)CC3)cc2)CC1 [Example 239] | 75.8 nM | 0.6 nM |  |
